Results published in patent US6673746B1, “Virulence enhancement of bioherbicides” (priority 1999, dated 2004).

Tests used:
Papaver somniferum = assay: Amino acid toxicity test on plants, Papaver somniferum seedlings; assay type: in vivo; conditions: for reduction of fresh weight of P. somniferum seedlings vs control: 0.1 mM; for reduction of fresh weight of P. somniferum seedlings: 1 mM; for inhibition of P. somniferum seedling growth compared with the other amino acids: in vivo
Experimental: (§1) Amino Acid Toxicity Tests on Plants. Germinated seeds of Cannabis sativa, Papaver somniferum, and Nicotiana tobaccum were transferred to minimal medium (3% Sucrose (w/v), 1.7 g/l Yeast extract base without amino acids (Difco Laboratories, Detroit, Mich.), 16 g/l Ultrapure Agar (USB, Cleveland, Ohio)) supplemented with increasing concentrations of amino acids. Each amino acid was supplemented at eight concentrations (0 mM, 0.01 mM, 0.1 mM, 0.5 mM, 1 mM, 2 mM, 3 mM, 4 mM), and each treatment was replicated six times. Five pregerminated seeds were placed on each plate, per replication. Plates were incubated at ambient temperature with 12-hour diurnal period for two weeks. The fresh weight per seedling was calculated at the end of the experiment.

Cannabis sativa = assay type: in vivo
Experimental: as §1

Nicotiana tobaccum = assay: Amino acid toxicity test on plants, tobacco seedlings; assay type: in vivo; conditions: 0.1 mM on agar media
Experimental: as §1

Fusarium oxysporum = assay type: cell-based; conditions: 0.5 ml of 1000 :g/ml analog in well, minimal medium, 28° C.
Experimental: Mutant selection. The inhibitory effect of valine and valine analogs was tested against the selected Fusarium spp., using a well zone-diffusion assay on a minimal medium. Seven available valine analogs were tested. The gradient plates were prepared as follows: Minimal media was poured into Petri dishes, then a disk (diameter=10 mm) of the solidified medium was cut out (with number 5 cutter) from the center of the plate and filled with the sterile solution of an analog (0.5 ml of a 1000 :g/ml of analog in sterile distilled H2O). The solution was gradually applied to the well and the plates were allowed to dry and form a gradient under the hood for 24 hours. A Fusarium oxysporum microconidia suspension of 10^7 sp/ml was obtained by washing a 10-14 day fungal culture grown on minimal medium (with nitrate) with 10 ml of sterile H2O. Five hundred :1 of the spore suspension was thoroughly spread across the plate with a glass rod. These plates were then incubated at 28° C.

N[C@@H](Cc1ccc(O)cc1)C(=O)O [tyrosine]
reduction of fresh weight of P. somniferum seedlings vs control (Papaver somniferum): about 40% | reduction of fresh weight of C. sativa seedlings (Cannabis sativa; 1 mM in minimal medium): 25-30% | inhibition of C. sativa seedlings compared with the other amino acids (Cannabis sativa; in vivo): less inhibitory than other amino acids tested | reduction of fresh weight of tobacco seedlings vs control (Nicotiana tobaccum): 50-60%

CC(C)(S)[C@@H](N)C(=O)O [penicillamine]
inhibitory effect on strains of F. oxysporum (Fusarium oxysporum): inhibitory

CC(C)[C@H](N)C(=O)NO [L-valine hydroxamate]
inhibitory effect on strains of F. oxysporum (Fusarium oxysporum): not inhibitory

N[C@@H](Cc1c[nH]c2ccccc12)C(=O)O [tryptophan]
reduction of fresh weight of P. somniferum seedlings (Papaver somniferum): 20% | inhibition of P. somniferum seedling growth compared with the other amino acids (Papaver somniferum): less inhibitory | reduction of fresh weight of tobacco seedlings vs control (Nicotiana tobaccum): 20%

CC(C)[C@H](N)CO [L-valinol]
inhibitory effect on strains of F. oxysporum (Fusarium oxysporum): not inhibitory

CCC(C)C(=O)C(=O)O (racemic) [DL-α-keto-β-methyl valeric acid]
inhibitory effect on strains of F. oxysporum (Fusarium oxysporum): not inhibitory

N[C@@H](Cc1ccccc1)C(=O)O [phenylalanine]
reduction of fresh weight of P. somniferum seedlings (Papaver somniferum): 20% | inhibition of P. somniferum seedling growth compared with the other amino acids (Papaver somniferum): less inhibitory | reduction of fresh weight of C. sativa seedlings vs control (Cannabis sativa; 0.1 mM in minimal medium): 40-45% | reduction of fresh weight of tobacco seedlings vs control (Nicotiana tobaccum): 20%

CC[C@H](N)C(=O)O [L-amino-n- butyric acid]
inhibitory effect on strains of F. oxysporum (Fusarium oxysporum): not inhibitory

CC(C)[C@H](N)C(N)=O [L-valine amide]
inhibitory effect on strains of F. oxysporum (Fusarium oxysporum): not inhibitory

CCC[C@H](N)C(=O)O [Norvaline]
inhibitory effect on strains of F. oxysporum (Fusarium oxysporum): inhibitory

CC(C)[C@H](N)C(=O)O [valine]
reduction of fresh weight of P. somniferum seedlings vs control (Papaver somniferum): about 60% | reduction of fresh weight of C. sativa seedlings vs control (Cannabis sativa; 0.1 mM in minimal medium): 50% | fresh weight of C. sativa seedlings relative to control seedlings (Cannabis sativa; 0.1 mM in minimal medium, two weeks): half of the control | concentration at which inhibitory effects on growth of C. sativa seedlings start (Cannabis sativa; minimal media with nitrate): 0.1 mM
